Data reported in PMC10208151 (mAbs, 2023).

Target: BMSmAb (Bristol Myers Squibb mAb, a type of IgG4)
Assay: STD NMR titration
Type: binding

`OC[C@H]1O[C@@](CO)(O[C@H]2O[C@H](CO)[C@@H](O)[C@H](O)[C@H]2O)[C@@H](O)[C@@H]1O` [sucrose] was tested, and the Kd was 67.8 mM.
